ChEMBL document CHEMBL4354799, “Exploiting Structural Dynamics To Design Open-Flap Inhibitors of Malarial Aspartic Proteases” (J Med Chem, 2019)

Legend:
Plasmepsin II [1] = target: T1, Plasmepsin II (Plasmodium falciparum, UniProt P46925); assay: Inhibition of Plasmodium falciparum plasmepsin 2 incubated for 10 mins followed by DABCYL-Glu-Arg-Nle-Phe-Leu-Ser-Phe-Pro-EDANS addition and measured after 30 mins by fluorescence method
Plasmepsin II [2] = target: T1, Plasmepsin II; assay: Inhibition of Plasmodium falciparum plasmepsin 2 using fluorescently labeled peptide substrate by fluorescence method
Plasmepsin 4 [3] = target: T2, Plasmepsin 4 (Plasmodium falciparum, UniProt Q17SB2); assay: Inhibition of Plasmodium falciparum plasmepsin 4 using fluorescently labeled peptide substrate by fluorescence method
T2 sequence (Q17SB2 whole entry): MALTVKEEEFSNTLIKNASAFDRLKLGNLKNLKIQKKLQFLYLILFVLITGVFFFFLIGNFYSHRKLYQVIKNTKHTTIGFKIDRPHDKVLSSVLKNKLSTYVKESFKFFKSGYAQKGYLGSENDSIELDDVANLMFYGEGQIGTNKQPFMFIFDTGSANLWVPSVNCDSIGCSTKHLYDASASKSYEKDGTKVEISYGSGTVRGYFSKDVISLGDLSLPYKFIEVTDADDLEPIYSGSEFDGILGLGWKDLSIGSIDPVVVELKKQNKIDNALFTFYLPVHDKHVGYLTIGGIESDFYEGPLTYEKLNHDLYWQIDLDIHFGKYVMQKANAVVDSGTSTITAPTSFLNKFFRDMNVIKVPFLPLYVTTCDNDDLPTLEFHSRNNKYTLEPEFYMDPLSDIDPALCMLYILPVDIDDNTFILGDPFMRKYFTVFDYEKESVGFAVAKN

Plasmepsin II [4] = target: T1, Plasmepsin II; assay: Inhibition of Plasmodium falciparum plasmepsin 2 using Dabcyl-ERNIef:LSFP-EDANS as substrate incubated for 40 mins by FRET assay
Plasmepsin II [5] = target: T1, Plasmepsin II; assay: Inhibition of Plasmodium falciparum plasmepsin 2 using DABCYL-Glu-Arg-Nle-Phe-Leu-Ser-Phe-Pro-EDANS as substrate by FRET assay
Cathepsin D = Cathepsin D (Homo sapiens, UniProt P07339); assay: Inhibition of human liver cathepsin D using DABCYL-Glu-Arg-Nle-Phe-Leu-Ser-Phe-Pro-EDANS as substrate by FRET assay
Cathepsin D, sequence (P07339 65-162 limits assumed): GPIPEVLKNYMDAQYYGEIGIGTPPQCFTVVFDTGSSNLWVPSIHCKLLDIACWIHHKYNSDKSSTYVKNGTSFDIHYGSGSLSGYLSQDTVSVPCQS
Cathepsin D, sequence (P07339 169-412 limits assumed): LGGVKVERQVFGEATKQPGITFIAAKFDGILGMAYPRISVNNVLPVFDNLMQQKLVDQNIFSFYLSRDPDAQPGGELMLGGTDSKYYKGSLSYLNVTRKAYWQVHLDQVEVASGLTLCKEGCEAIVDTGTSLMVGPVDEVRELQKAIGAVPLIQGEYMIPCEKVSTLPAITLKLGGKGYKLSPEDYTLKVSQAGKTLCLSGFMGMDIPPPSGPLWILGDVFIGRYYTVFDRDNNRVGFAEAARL

Plasmepsin II [6] = target: T1, Plasmepsin II; assay: Inhibition of Plasmodium falciparum plasmepsin 2 preincubated for 30 mins followed by DABCYL-Glu-Arg-Nle-Phe-Leu-Ser-Phe-Pro-EDANS addition measured every minute for 8 to 15 mins by FRET assay
Plasmepsin II [7] = target: T1, Plasmepsin II; assay: Inhibition of Plasmodium falciparum plasmepsin 2 by FRET assay
Plasmepsin 4 [8] = target: T2, Plasmepsin 4; assay: Inhibition of Plasmodium falciparum plasmepsin 4 by FRET assay

T1 sequence (P46925 whole entry): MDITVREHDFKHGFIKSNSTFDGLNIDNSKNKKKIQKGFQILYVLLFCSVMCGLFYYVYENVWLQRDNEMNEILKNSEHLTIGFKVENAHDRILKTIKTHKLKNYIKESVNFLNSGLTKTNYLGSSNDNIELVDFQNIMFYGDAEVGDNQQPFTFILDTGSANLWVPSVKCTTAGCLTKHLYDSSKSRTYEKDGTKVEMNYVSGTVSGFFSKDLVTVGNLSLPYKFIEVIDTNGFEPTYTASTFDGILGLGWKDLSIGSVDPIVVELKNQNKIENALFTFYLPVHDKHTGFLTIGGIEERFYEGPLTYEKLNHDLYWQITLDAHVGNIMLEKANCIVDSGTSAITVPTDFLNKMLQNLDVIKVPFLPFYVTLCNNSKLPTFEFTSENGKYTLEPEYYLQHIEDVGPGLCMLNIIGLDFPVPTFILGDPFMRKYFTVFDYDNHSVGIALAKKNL

`O=C(Nc1ccc(Cl)c(Cl)c1)Nc1cc(Cl)ccc1Oc1cc(Cl)c(Cl)cc1S(=O)(=O)O` showed a Ki (Plasmepsin II [1]) of 50 to 680 nM.

For `CCCCCCc1ccc(S(=O)(=O)C2C3CCC(N3)C2NCc2ccc3ccccc3c2)cc1` (centres undefined), the IC50 (Plasmepsin II [2]) was 130 nM and the IC50 (Plasmepsin 4 [3]) was 50 nM.

With `O=S(=O)(c1ccc(CCCCC2CCCCC2)cc1)C1C2CCC(N2)C1NCc1ccc2ccccc2c1` (centres undefined) the IC50 (Plasmepsin II [2]) was 380 nM and the IC50 (Plasmepsin 4 [3]) was 760 nM.

For `CC(=O)N1CC2CC(c3ccc(CCOc4cccc(OC(F)(F)F)c4)cc3)=C(C(=O)N(C)CCc3ccccc3)C(C1)N2` (centres undefined), the IC50 (Plasmepsin II [4]) was 10 to 100 nM.

Compound `c1ccc(NNc2ccccc2)cc1` [HYDRAZOBENZENE] has an IC50 (Plasmepsin II [5]) of 1000 to 2500 nM and an IC50 (Cathepsin D) of 1000 to 2500 nM.

`COc1ccccc1C(=O)NN` showed an IC50 (Plasmepsin II [5]) of 1000 to 2500 nM and an IC50 (Cathepsin D) of 1000 to 2500 nM.

Compound `CC(=O)N1CC2CC(c3ccc(CCOc4ccc(C(C)(C)C)cc4C)cc3)=C(C(=O)N(C)CCc3ccccc3)C(C1)N2` (centres undefined) has an IC50 (Plasmepsin II [4]) of 10 to 100 nM.

`CCCCCc1ccc(C(=O)N(Cc2ccc(-c3ccccc3)cc2)C2CCN(Cc3ccccc3)CC2)cc1` was tested, and the IC50 (Plasmepsin II [4]) was 70 to 90 nM.

`O=S(=O)(c1ccc(CCCCC2CCC2)cc1)C1C2CCC(N2)C1NCc1ccc2ccccc2c1` (centres undefined) gave an IC50 (Plasmepsin II [2]) of 170 nM and an IC50 (Plasmepsin 4 [3]) of 180 nM.

`O=S(=O)(c1ccc(CCCCC2CCCC2)cc1)C1C2CCC(N2)C1NCc1ccc2ccccc2c1` (centres undefined) showed an IC50 (Plasmepsin II [2]) of 190 nM and an IC50 (Plasmepsin 4 [3]) of 210 nM.

Work on `CC(C)CCCCc1ccc(S(=O)(=O)C2C3CCC(N3)C2NCc2ccc3ccccc3c2)cc1` (centres undefined) yielded an IC50 (Plasmepsin II [2]) of 30 nM and an IC50 (Plasmepsin 4 [3]) of 90 nM.

Work on `CCCCCc1ccc(-n2nnc(CCN(CC)CC)c2-c2ccc(-c3ccc(OC)cc3)cc2)cc1` yielded an IC50 (Plasmepsin II [6]) of 600 nM.

For `CCCCCCc1ccc(S(=O)(=O)[C@@H]2[C@H](NCc3cccc(Br)c3)[C@@H]3CC[C@H]2N3)cc1`, the IC50 (Plasmepsin II [2]) was no more than 45 nM and the IC50 (Plasmepsin 4 [3]) was 10 nM.

Compound `CC(C)(C)c1ccc(C(=O)N(Cc2ccc(-c3ccccc3)cc2)C2CCN(Cc3ccccc3)CC2)cc1` has an IC50 (Plasmepsin II [4]) greater than 20000 nM.

For `CC(=O)N1CC2CC(c3ccc(CCOc4ccccc4C(C)(C)C)cc3)=C(C(=O)N(C)CCc3ccccc3)C(C1)N2` (centres undefined), the IC50 (Plasmepsin II [4]) was 10 to 100 nM.

`CCCCCCCc1ccc(S(=O)(=O)C2C3CCC(N3)C2NCc2ccc3ccccc3c2)cc1` (centres undefined) was tested, and the IC50 (Plasmepsin II [2]) was 50 nM and the IC50 (Plasmepsin 4 [3]) was 210 nM.

`CC(=O)N1CC2CC(c3ccc(CCOc4ccc(C)cc4C(C)(C)C)cc3)=C(C(=O)N(C)CCc3ccccc3)C(C1)N2` (centres undefined) gave an IC50 (Plasmepsin II [4]) of 100 to 10000 nM.

`CC(=O)N1CC2CC(c3ccc(CCOc4cccc(Cl)c4)cc3)=C(C(=O)N(C)CCc3ccccc3)C(C1)N2` (centres undefined) showed an IC50 (Plasmepsin II [4]) of 100 to 10000 nM.

With `O=C(Nc1ccc(Oc2ccc(Cl)cc2)c(Cl)c1)Nc1cc(Cl)c(Cl)cc1S(=O)(=O)O` the Ki (Plasmepsin II [1]) was 50 to 680 nM.

For `Cc1ccc(C)c(OCCCc2ccc(C3=C(C(=O)N(Cc4ccccc4Cl)C4CC4)CNCC3)cc2)c1C`, the IC50 (Plasmepsin II [4]) was 100 to 10000 nM.

Work on `CC(=O)N1CC2CC(c3ccc(CCOc4ccccc4C(C)C)cc3)=C(C(=O)N(C)CCc3ccccc3)C(C1)N2` (centres undefined) yielded an IC50 (Plasmepsin II [4]) of 10 to 100 nM.

In the case of `CCCCCc1ccc(-n2nnc(CCN(CC)CC)c2-c2ccc(-c3ccc(OC)cc3)cc2)c(Cl)c1`, the IC50 (Plasmepsin II [6]) is reported as 600 nM.

`c1ccc2c(CCOc3cc4c(cc3OCCSc3nc5ccccc5s3)C3CCC4N3)cccc2c1` (centres undefined) gave an IC50 (Plasmepsin II [7]) of 3000 nM and an IC50 (Plasmepsin 4 [8]) of 15000 nM.

Compound `CCCCCc1ccc(S(=O)(=O)C2C3CCC(N3)C2NCc2ccc3ccccc3c2)cc1` (centres undefined) has an IC50 (Plasmepsin II [2]) of 680 nM and an IC50 (Plasmepsin 4 [3]) of 240 nM.

`O=C(C1=C(c2ccc(CCCOc3cc(F)ccc3Br)cc2)CCNC1)N(Cc1ccccc1Cl)C1CC1` gave an IC50 (Plasmepsin II [4]) of less than 100 nM.

`CCCCCc1ccc(Cn2nnc(CCN(CC)CC)c2-c2ccc(-c3ccc(OC)cc3)cc2)cc1` showed an IC50 (Plasmepsin II [6]) of 5200 nM.

`O=C(Nc1ccc(Cl)c(Cl)c1)Nc1cc(Cl)c(Oc2ccc(Cl)cc2)cc1S(=O)(=O)O` was tested, and the Ki (Plasmepsin II [1]) was 50 to 680 nM.

For `CCN(CC)CCc1nnn(-c2ccc(C)cc2)c1-c1ccc(-c2ccc(OC)cc2)cc1`, the IC50 (Plasmepsin II [6]) was greater than 200000 nM.

Work on `CC(=O)N1CC2CC(c3ccc(CCOc4cccc(Br)c4)cc3)=C(C(=O)N(C)CCc3ccccc3)C(C1)N2` (centres undefined) yielded an IC50 (Plasmepsin II [4]) of 10 to 100 nM.

Compound `CCCCc1ccc(S(=O)(=O)C2C3CCC(N3)C2NCc2ccc3ccccc3c2)cc1` (centres undefined) has an IC50 (Plasmepsin II [2]) of 4190 nM and an IC50 (Plasmepsin 4 [3]) of 1480 nM.

`O=C(Nc1cccc(C(F)(F)F)c1)Nc1ccc(Oc2ccc(Cl)cc2Cl)cc1S(=O)(=O)O` was tested, and the Ki (Plasmepsin II [1]) was 50 to 680 nM.

Work on `CCCCCCCCCc1ccc(S(=O)(=O)C2C3CCC(N3)C2NCc2ccc3ccccc3c2)cc1` (centres undefined) yielded an IC50 (Plasmepsin II [2]) of 150 nM and an IC50 (Plasmepsin 4 [3]) of 1360 nM.

Compound `CCCCCN(CCCCC)CC(O)c1cc2c(c3ccccc13)CCCC2` (centres undefined) has an IC50 (Plasmepsin II [2]) of 5000 nM.

With `CCc1ccc(C(=O)N(Cc2ccc(-c3ccccc3)cc2)C2CCN(Cc3ccccc3)CC2)cc1` the IC50 (Plasmepsin II [4]) was 15600 nM.

In the case of `O=C(Nc1ccc(Cl)c(C(F)(F)F)c1)Nc1cc(Cl)ccc1Oc1ccc(Cl)cc1S(=O)(=O)O`, the Ki (Plasmepsin II [1]) is reported as 50 to 680 nM.

`c1ccc(-c2nnc(SCCOc3cc4c(cc3OCCc3cccc5ccccc35)C3CCC4N3)o2)cc1` (centres undefined) gave an IC50 (Plasmepsin II [7]) of 79000 nM.

`NNC(=O)c1ccccc1[N+](=O)[O-]` was tested, and the IC50 (Plasmepsin II [5]) was 1000 to 2500 nM and the IC50 (Cathepsin D) was 1000 to 2500 nM.

With `CC(C)CCCN(CCCC(C)C)CC(O)c1cc2c(c3ccccc13)CCCC2` (centres undefined) the IC50 (Plasmepsin II [2]) was 19000 nM.

In the case of `CC(=O)N1CC2CC(c3ccc(CCOc4cc(Cl)ccc4Cl)cc3)=C(C(=O)N(C)CCc3ccccc3)C(C1)N2` (centres undefined), the IC50 (Plasmepsin II [4]) is reported as 10 to 100 nM.

For `CCCCOc1ccc(C(=O)N(Cc2ccc(-c3ccccc3)cc2)C2CCN(Cc3ccccc3)CC2)cc1`, the IC50 (Plasmepsin II [4]) was 1700 nM.

With `O=C(Nc1ccc(Cl)c(C(F)(F)F)c1)Nc1cc(Cl)c(Oc2ccc(Cl)cc2)cc1S(=O)(=O)O` the Ki (Plasmepsin II [1]) was 50 to 680 nM.

In the case of `c1ccc2c(CCOc3cc4c(cc3CCCSc3nc5ccccc5s3)C3CCC4N3)cccc2c1` (centres undefined), the IC50 (Plasmepsin II [7]) is reported as 4000 nM and the IC50 (Plasmepsin 4 [8]) is reported as 33000 nM.

`O=C(C1=C(c2ccc(CCCOc3c(F)ccc(F)c3F)cc2)CCNC1)N(Cc1ccccc1Cl)C1CC1` was tested, and the IC50 (Plasmepsin II [4]) was 100 to 10000 nM.

`CCCC(=O)NN` gave an IC50 (Plasmepsin II [5]) of 1000 to 2500 nM and an IC50 (Cathepsin D) of 1000 to 2500 nM.

Work on `COc1cccc(OCCc2ccc(C3=C(C(=O)N(C)CCc4ccccc4)C4CN(C(C)=O)CC(C3)N4)cc2)c1` (centres undefined) yielded an IC50 (Plasmepsin II [4]) of 10 to 100 nM.

For `O=C(Nc1ccc(Oc2ccc(Cl)cc2)c(Cl)c1)Nc1cc(C(F)(F)F)c(Cl)cc1S(=O)(=O)O`, the Ki (Plasmepsin II [1]) was 50 to 680 nM.

`Clc1ccc2sc(SCCCc3cc4c(cc3OCCc3cccc5ccccc35)C3CCC4N3)nc2c1` (centres undefined) was tested, and the IC50 (Plasmepsin II [7]) was 2000 nM and the IC50 (Plasmepsin 4 [8]) was 10000 nM.

`CCCCCCCCCCCc1ccc(S(=O)(=O)C2C3CCC(N3)C2NCc2ccc3ccccc3c2)cc1` (centres undefined) showed an IC50 (Plasmepsin II [2]) of 1950 nM and an IC50 (Plasmepsin 4 [3]) of 5350 nM.

`CC(=O)N1CC2CC(c3ccc(CCOc4cc(Cl)cc(Cl)c4)cc3)=C(C(=O)N(C)CCc3ccccc3)C(C1)N2` (centres undefined) gave an IC50 (Plasmepsin II [4]) of 10 to 100 nM.

`COc1cc2c(cc1OCCc1cccc3ccccc13)C1CCC2N1` (centres undefined) showed an IC50 (Plasmepsin II [7]) of 24000 nM and an IC50 (Plasmepsin 4 [8]) of 81000 nM.

For `c1cc(NNc2ccncc2)ccn1`, the IC50 (Plasmepsin II [5]) was 1000 to 2500 nM and the IC50 (Cathepsin D) was 1000 to 2500 nM.

Compound `CCCCCCCCCCCC(=O)N(Cc1ccc(-c2ccccc2)cc1)C1CCN(Cc2ccccc2)CC1` has an IC50 (Plasmepsin II [4]) of 1800 nM.

For `NNC(=O)C(c1ccccc1)c1ccccc1`, the IC50 (Plasmepsin II [5]) was 1000 to 2500 nM and the IC50 (Cathepsin D) was 1000 to 2500 nM.

With `CCCCCCCCc1ccc(S(=O)(=O)C2C3CCC(N3)C2NCc2ccc3ccccc3c2)cc1` (centres undefined) the IC50 (Plasmepsin II [2]) was 70 nM and the IC50 (Plasmepsin 4 [3]) was 430 nM.

In the case of `O=C(Nc1cc(C(F)(F)F)ccc1Cl)Nc1cc(Cl)ccc1Oc1cc(Cl)c(Cl)cc1S(=O)(=O)O`, the Ki (Plasmepsin II [1]) is reported as 50 to 680 nM.

In the case of `O=C(Nc1cc(C(F)(F)F)cc(C(F)(F)F)c1)Nc1c(Oc2ccc(Cl)cc2)ccc(Cl)c1S(=O)(=O)O`, the Ki (Plasmepsin II [1]) is reported as 50 to 680 nM.

In the case of `CC(=O)N1CC2CC(c3ccc(CCOc4cc(F)ccc4Br)cc3)=C(C(=O)N(C)CCc3ccccc3)C(C1)N2` (centres undefined), the IC50 (Plasmepsin II [4]) is reported as less than 10 nM.

Compound `CCCCCc1ccc(N(CC2CCC(O)C(F)(F)C2)C(=O)Cc2ccc3ccccc3c2)cc1` (centres undefined) has an IC50 (Plasmepsin II [7]) of 7000 nM.

`CC(=O)N1CC2CC(c3ccc(CCOc4ccccc4Cl)cc3)=C(C(=O)N(C)CCc3ccccc3)C(C1)N2` (centres undefined) was tested, and the IC50 (Plasmepsin II [4]) was 100 to 10000 nM.

`CCCCCCCCCCc1ccc(S(=O)(=O)C2C3CCC(N3)C2NCc2ccc3ccccc3c2)cc1` (centres undefined) was tested, and the IC50 (Plasmepsin II [2]) was 350 nM and the IC50 (Plasmepsin 4 [3]) was 3190 nM.

With `O=C(C1=C(c2ccc(CCCOc3ccccc3Cl)cc2)CCNC1)N(Cc1ccccc1Cl)C1CC1` the IC50 (Plasmepsin II [4]) was less than 100 nM.
